According to US20140193529A1, “Modulation of Thymosin Beta-4 in Skin” (AVON PRODUCTS, INC., priority 2013, published 2014):

Legend:
[1] = system: thymosin beta-4 (TMSB4X) mRNA; assay: Thymosin beta-4 stimulation assay (QUANTIGENE multiplex mRNA assay); assay type: cell-based; conditions: human dermal fibroblasts, 24 hours
Method: Normal human dermal fibroblasts were cultured in 96-well tissue culture-treated plates, containing appropriate culture medium. Stock solutions of actives were made in an appropriate vehicle (water or DMSO). Cells were treated with test material or respective vehicle control diluted in growth medium for 24 hours in a humidified 37° C. incubator with 10% CO2. After incubation, growth medium from each plate was removed and 100 μL, of lysis buffer was added to the wells and placed in 37° C. incubator with 10% CO2 for 30 minutes. At the end of incubation, the cell lysates were collected in freezer plates and placed in −80° C. freezer until analysis. Changes in mRNA for thymosin beta-4 (TMSB4X) after treatment were analyzed using Affymetrix's QUANTIGENE® multiplex assay that employs a branched DNA signal amplification technology, following the manufacturer's instructions (Affymetrix, Calif.). Percent increase in mRNA for thymosin beta-4 (TMSB4X) was calculated by comparing the test results to the control. The percent up-regulation is converted to a scaled score as shown below in Table 2.
A variety of botanical extracts were tested for the ability to up-regulate Thymosin beta-4 according to the method of Example 1. The concentrations of each extract are provided based on the dry weight of the given plant extract, by which is meant the weight of the extract after volatile extraction solvents have been removed. The cells tested were primary human dermal fibroblasts.
Synthetic compounds 1-4 were also tested as active agents for the ability to upregulate thymosin beta-4 according to the method of Example 1.

[2] = system: thymosin beta-4; assay: Mode of operation of retinol in human skin
[3] = system: IL-8 gene and protein expression; assay: Anti-inflammatory effect of TB-4 in TNF-alpha treated human dermal fibroblasts (qPCR, ELISA, PCR array); assay type: cell-based
Method: Commercially obtained human dermal fibroblasts were treated with tumor necrosis factor alpha for 6 hours to induce inflammation. Cells were either pre-treated with recombinant TB-4 or control media to assess its anti-inflammatory effect. Cell lysates and media were collected and qPCR and ELISA were performed to assess IL-8 gene and protein expression. Human cytokines and chemokines PCR array was also performed to investigate the impact of TB-4 on the expression profile of key secreted proteins in the inflammation pathway. […] Therefore, modulating endogenous TB-4 could be adopted as an avenue to battle inflammatory skin damage resulting from skin chronological aging and photoaging.

For `Cc1ccc(C(=O)CC(NCc2ccccc2)C(=O)O)cc1` (stereo not shown) [Compound 2], the “Thymosin beta-4 (TMSB4X) Degree of Upregulation” value (“Thymosin beta-4 (TMSB4X) Degree” for short) ([1]; compound Conc. 0.0001%) was “+ (21-40)”.
For `CCc1c(C(=O)N2CCCC2)cnn1-c1ccccc1Cl` [Compound 4], the “Thymosin beta-4 (TMSB4X) Degree” value ([1]; compound Conc. 0.00001%) was “+ (21-40)”.
With `CC1=C(/C=C/C(C)=C/C=C/C(C)=C/CO)C(C)(C)CCC1` [retinol] the “upregulation of thymosin beta-4” value [2] was “potent upregulator”.
“TB-4: recombinant thymosin beta-4, 43 amino acid peptide, 4.9 kDa (SDKPDMAEIEKFDKSKLKKTETQEKNPLPSKETIEQEKQAGES; UniProt P62328 2-44, looked up)” was tested, and the “regulation of key cytokines and chemokines genes” value ([3]; human cytokines and chemokines PCR array, TNF-alpha treated fibroblasts) was “significantly regulates”, the “suppression of IL-8 protein secretion caused by TNF-alpha stimulation” value ([3]; pre-treatment with recombinant TB-4, TNF-alpha 6 hours, ELISA) was “greater than 50%” and the “suppression of IL-8 gene expression caused by TNF-alpha stimulation” value ([3]; pre-treatment with recombinant TB-4, TNF-alpha 6 hours, qPCR) was “greater than 50%”.
In the case of `CCOCCCNC(=O)c1cc(NC(=O)/C=C/c2ccccc2)ccc1N1CCC(Cc2ccccc2)CC1` [Compound 1], the “Thymosin beta-4 (TMSB4X) Degree” value ([1]; compound Conc. 0.001%) was “++ (41-60)”.
